The source made the active and inactive calls. The rule behind the calls is not given here.
Key:
Mus musculus [1] = assay: Antiinflammatory activity against oxazolone-induced atopic dermatitis in nude mouse assessed as decrease in transepidermal water loss at 0.01 % administered topically bid simultaneously with oxazolone qd for 10 days following 5 days post-oxazolone challenge relative to control; type: functional; set-up: scale not given: the % may be the effect or the level left
Mus musculus [2] = assay: Antiinflammatory activity against oxazolone-induced atopic dermatitis in nude mouse assessed as decrease in transepidermal water loss at 0.3 % administered topically bid simultaneously with oxazolone qd for 10 days following 5 days post-oxazolone challenge relative to control; type: functional, organism-based; set-up: scale not given: the % may be the effect or the level left
Mus musculus [3] = assay: Antiinflammatory activity against oxazolone-induced atopic dermatitis in nude mouse assessed as decrease in transepidermal water loss at 1.8 % administered topically bid simultaneously with oxazolone qd for 10 days following 5 days post-oxazolone challenge relative to control; type: functional, organism-based; set-up: scale not given: the % may be the effect or the level left
Mus musculus [4] = assay: Antiinflammatory activity against oxazolone-induced atopic dermatitis in nude mouse assessed as decrease in skin thickness at 0.3 to 1.8 % administered topically bid simultaneously with oxazolone qd for 10 days following 5 days post-oxazolone challenge relative to control; type: functional, organism-based
Mus musculus [5] = assay: Antiinflammatory activity against oxazolone-induced atopic dermatitis in nude mouse assessed as decrease in skin thickness at 0.01 % administered topically bid simultaneously with oxazolone qd for 10 days following 5 days post-oxazolone challenge relative to control; type: functional, organism-based
Mus musculus [6] = assay: Antiinflammatory activity against oxazolone-induced atopic dermatitis in nude mouse assessed as infiltration of lymphocytes in dermis at 1.8 % administered topically bid simultaneously with oxazolone qd for 10 days following 5 days post-oxazolone challenge relative to control; type: functional, organism-based
Mus musculus [7] = assay: Antiinflammatory activity against oxazolone-induced atopic dermatitis in nude mouse assessed as alleviation of parkeratotic scales at 1.8 % administered topically bid simultaneously with oxazolone qd for 10 days following 5 days post-oxazolone challenge relative to control; type: functional, organism-based
Mus musculus [8] = assay: Antiinflammatory activity against oxazolone-induced atopic dermatitis in nude mouse assessed as reduction in IgE level at 0.3 to 1.8 % administered topically bid simultaneously with oxazolone qd for 10 days following 5 days post-oxazolone challenge relative to control; type: functional, organism-based

Compound: C[C@H]1C[C@H]2[C@@H]3CCC4=CC(=O)C=C[C@]4(C)[C@@]3(F)[C@@H](O)C[C@]2(C)[C@@]1(O)C(=O)CO [BETAMETHASONE]
- Activity (Mus musculus [1]): 57%

Compound: N-((2S)-2-(3,4-dihydroxy-5-oxo-2,5-dihydrofuran-2-yl)-2-hydroxyethyl)-3-(trimethylgermyl)propanamide
- Activity (Mus musculus [2]): 6%
- Activity (Mus musculus [3]): 39%
- Activity (Mus musculus [4]): Active
- Activity (Mus musculus [5]): Active
- Activity (Mus musculus [6]): Active
- Activity (Mus musculus [7]): Active
- Activity (Mus musculus [8]): Active
